Data taken from US10307371B2 (AI Therapeutics, Inc., priority 2014, dated 2019).
Where “and” joins values, the source holds several entries; their conditions need not be identical. Equal entries are not always repeated. Entries after “also recorded” stand apart in the source; their conditions may differ.

Assays:
[1] = Concentration of rapamycin in blood and lung after oropharyngeal aspiration (OPA) or oral gavage, LC-MS/MS; format: in vivo, C57BL/6 mice; details: 1 mg/kg
Description: Each animal was weighed prior to dosing to determine the amount of dose to be administered. A single gavage dose was administered using a 100-μL glass syringe (Hamilton, Reno, Nev.) fitted with a ball-tipped 20-G stainless steel gavage dosing needle (Popper & Sons Inc., New Hyde Park, N.Y.). The dose administered to each animal was determined from the weight of the full syringe minus that of the empty syringe. The dosing time was recorded. Dosing of animals was spaced apart to allow blood collection at the appropriate times. The dose formulations administered to each group are shown below.
Each mouse was anesthetized with isoflurane, and restrained with the mouth open. The tongue was held to one side of the mouth with forceps, and the dose was slowly injected into the distal part of the oral cavity. The nostrils were covered with a finger for two breaths to ensure aspiration (Rao et al., 2003).
Collection of Blood and Lung Samples: At study termination (1 or 72 h after dosing), mice were anesthetized by exposure to CO2, and blood was collected by cardiac puncture with dipotassium EDTA as anticoagulant. Lung tissue was excised and divided into the right and left lung. The left lung was used for analysis, and the right lung flash frozen in liquid nitrogen and stored at −70° C. for further analysis.
Triamcinolone was used as internal standard.
Lung homogenate was prepared by homogenization of weighed lung samples with 2.8-mm ball bearings in a homogenizer with tissue+deionized water (1:3 w/v) in a SPEX SamplePrep 2010 Geno/Grinder.
The concentrations of standards were arranged so that each standard came from an alternate stock standard. A six-point calibration curve, each made in triplicate, was employed for analyte quantitation. A simple linear regression model with or without weighting was employed for curve fitting. The concentration range determined was from 1-2000 ng/mL in blood and 2-2000 ng/mL in lung homogenate.
Thirty (30) μL of matrix, 30 μL of spiking solution (methanol for blanks and samples), 10 μL Internal standard solution (in MeOH) and 90 μL of MeOH were pipetted into microcentrifuge tubes, vortexed briefly, then centrifuged for 6 min at 10,000 RPM at ˜4° C. Aliquots (90 μL) of supernatant were transferred to LC vial inserts, and then analyzed by LC-MS/MS (Table 2).

[2] = Particle size distribution by laser diffraction after jet milling or wet polishing; format: physicochemical
Description: For jet milling, a lab scale MCOne unit from Jetpharma was used with the following operating conditions: venturi pressure 2-4 bar, milling pressure 3-5 bar, feed rate 90 g/h. For wet polishing, feed suspensions were prepared using purified water. A microfluidics high pressure homogenizer was used for the size reduction step and the resulting suspension was spray-dried. Details of the wet polishing process are set forth below.
The high pressure homogenizer used for the size reduction step of the wet polishing process was a pilot-scale Microfluidics High Pressure Homogenizer equipped with an auxiliary processing module (200 micron) and a 100 micron interaction chamber was used. The unit was operated at ˜455 bar (˜30 bar in the intensifier module hydraulic pressure). After microfluidization the fluid was removed by spray drying to generate a dry powder. A laboratory scale spray dryer, SD45 (BÜCHI, model B-290 Advanced) was equipped with a two fluid nozzle (cap and diameter were 1.4 and 0.7 mm, respectively). Two cyclones in series were used (being the first the standard Buchi cyclone and the second the high-performance Buchi cyclone) to collect the dried product. The spray drying unit was operated with nitrogen and in single pass mode, i.e. without recirculation of the drying nitrogen. The aspirator, blowing nitrogen, was set at 100% of its capacity (flow rate at maximum capacity is approximately 40 kg/h). The flow rate of the atomization nitrogen was adjusted to a value in the rotameter of 40±5 mm. Before feeding the product suspension, the spray dryer was stabilized with purified water, during which the flow rate was adjusted to 6 ml/min (20% in the peristaltic pump). The inlet temperature was adjusted to achieve the target outlet temperature (45° C.). After stabilization of the temperatures, the feed of the spray dryer was commuted from purified water to the product suspension (keeping the same flow rate used during stabilization) and the inlet temperature once again adjusted in order to achieve the target outlet temperature. At the end of the stock suspension, the feed was once more commuted to purified water in order to rinse the feed line and perform a controlled shut down. The dry product in the collection flasks under both cyclones was weighed and the yield calculated as the mass percentage of the dry product in relation to the total solids in the suspension fed to the high pressure homogenizer.
Particle size distribution was analyzed by laser diffraction. Solid state characterization (for polymorphic form and purity) was performed by high pressure liquid chromatography (HPLC), X-ray powder diffraction (XRPD), and differential scanning calorimetry (mDSC). Water content was determined by the Karl Fischer method.

[3] = human, cited from earlier work
[4] = cited from earlier work
angiomyolipomas = details: oral, 20 patients, cited from earlier work
renal angiomyolipomas = details: oral, 16 patients, cited from earlier work
[5] = study of 10 LAM patients; cited from earlier work
[6] = oral, 12 months, cited from earlier work
mTOR = assay: S6 phosphorylation in mouse lung as biomarker for mTOR activity; details: lung tissue
Description: To validate this approach, we used the presence of phosphorylated S6 protein in murine lung tissue as a biomarker for mTOR activity.

[7] = Observation for adverse effects / clinical signs after OPA or gavage dosing
Description: An additional group of 6 mice received vehicle only (10% ethanol in water). […] At the 72-h necropsy, blood was obtained by cardiac puncture and the lungs removed.
The weight of dose solution administered was determined by weighing the charged syringe with dose solution prior to dosing, and weighing following dosing. […] The time of dosing was recorded as 0. Animals in groups 2 and 3 were euthanized at 1 h after dosing.

[8] = cancer patients administered temsirolimus or everolimus; cited from earlier work
[9] = Gavage (Rapamune Oral), 1 h post-dose, individual animals
[10] = OPA, 1 h post-dose, individual animals
[11] = OPA, 72 h post-dose, individual animals

SMILES: CO[C@H]1C[C@@H]2CC[C@@H](C)[C@@](O)(O2)C(=O)C(=O)N2CCCC[C@H]2C(=O)O[C@H]([C@H](C)C[C@@H]2CC[C@@H](O)[C@H](OC)C2)CC(=O)[C@H](C)/C=C(\C)[C@@H](O)[C@@H](OC)C(=O)[C@H](C)C[C@H](C)/C=C/C=C/C=C/1C [Rapamycin, (3S,6R,7E,9R,10R,12R,14S,15E,17E,19E,21S,23S,26R,27R,34aS)-9,10,12,13, -14,21,22,23,24,25,26,27,32,33,34,34a-hexadecahydro-9,27-dihydroxy-3-[(1R)-2-[(1S,3R,4R)-4-hydroxy-3-methoxycyclohexyl]-1-methylethyl]-10,21-dimethox-y-6,8,12,14,20,26-hexamethyl-23,27-epoxy-3H-pyrido[2,1-c][1,4]oxaazacyclohentriacontine-1,5,11,28,29(4H,6H,31H)-pentone]
- Blood [1, 9]: 49.85 ng/mL and 11.3 ng/mL and 28.7 ng/mL and 28.35 ng/mL and 2.845 ng/mL and 19.35 ng/mL
- Lung (ng/g tissue) [1, 9]: 109.8 ng/g tissue and 24.66 ng/g tissue and 122.8 ng/g tissue and 54 ng/g tissue and <LOQ and 43 ng/g tissue
- Blood [1, 10]: 622 ng/mL and 364.5 ng/mL and 937 ng/mL and 848.5 ng/mL and 615.5 ng/mL and 455.5 ng/mL
- Lung (ng/g tissue) [1, 10]: 4500 ng/g tissue and 1874 ng/g tissue and 4006 ng/g tissue and 4700 ng/g tissue and 5040 ng/g tissue and 2642 ng/g tissue
- Rapamycin in blood, group statement ([1]; OPA, 72 h post-dose): below the limit of quantitation; also recorded: undetectable
- Blood (ng/ml) [1, 11]: <ELOQ
- Lung (ng/g tissue) [1, 11]: 11.4 ng/g tissue and 15.7 ng/g tissue and 10.8 ng/g tissue and 11.9 ng/g tissue and 13.6 ng/g tissue
- Rapamycin in blood ([1]; oral (gavage), 72 hrs): undetectable
- Rapamycin in lung ([1]; oral (gavage), 72 hrs): undetectable
- PSD Dv10 ([2]; jet milling): 1.5 μm and 1.51 μm
- PSD Dv50 ([2]; jet milling): 2.7 μm and 2.74 μm
- PSD Dv90 ([2]; jet milling): 4.9 μm and 4.91 μm
- PSD Dv10 ([2]; wet polishing): 1.0 μm and 1.05 μm
- PSD Dv50 ([2]; wet polishing): 2.4 μm and 2.42 μm
- PSD Dv90 ([2]; wet polishing): 5.0 μm and 4.97 μm
- Volume of distribution ([3]; Rapamune NDA 21-110 and 21-083): 780 L
- Elimination half-life ([3]; assuming equivalency to rapamycin IV dosing): 42.3 h
- Chemical stability of the amorphous form [4]: extremely chemically unstable
- Serious adverse events (angiomyolipomas; 24 months): diarrhea, pneumonia, pyelonephritis, cellulitis (from an animal bite), stomatitis, and hemorrhage of a renal angiomyolipoma
- Angiomyolipoma response (angiomyolipomas; during the treatment period): regressed “somewhat”
- Renal angiomyolipoma response (renal angiomyolipomas; up to 2 years): sustained regression of renal angiomyolipomas
- Steady state blood levels (renal angiomyolipomas; up to 2 years): 3 to 10 ng/mL
- Adverse events (renal angiomyolipomas): oral mucositis, respiratory infections, and proteinuria
- Patients discontinued because of serious recurrent lower respiratory tract infection or sirolimus-induced pneumonitis [5]: 3 patients
- Lung function ([6]; blood levels 5-15 ng/ml): stabilized lung function
- Serum VEGF-D levels ([6]; blood levels 5-15 ng/ml): reduced serum VEGF-D levels
- Blood levels at which patients were maintained [6]: 5 to 15 ng/mL
- Drug level in the lung that substantially abrogates mTOR signaling (pS6) (mTOR): about 70 ng/g
- Clinical signs ([7]; OPA or gavage, 1 mg/kg, up to 72 h after dosing, all groups): No significant clinical signs were observed
- Adverse effects ([7]; OPA, 1 mg/kg, 72 h period following dosing): No adverse effects were observed
- Acute toxicity to lung tissue ([7]; relatively high amounts delivered directly to lung (OPA, 1 mg/kg)): not acutely toxic to lung tissue

SMILES: CO[C@H]1C[C@@H]2CC[C@@H](C)[C@@](O)(O2)C(=O)C(=O)N2CCCC[C@H]2C(=O)O[C@H]([C@H](C)C[C@@H]2CC[C@@H](OCCO)[C@H](OC)C2)CC(=O)[C@H](C)/C=C(\C)[C@@H](O)[C@@H](OC)C(=O)[C@H](C)C[C@H](C)/C=C/C=C/C=C/1C [everolimus]
- Cancer patients who may experience mild grade pulmonary toxicity [8]: 10%

SMILES: CO[C@H]1C[C@@H]2CC[C@@H](C)[C@@](O)(O2)C(=O)C(=O)N2CCCC[C@H]2C(=O)O[C@H]([C@H](C)C[C@@H]2CC[C@@H](OC(=O)C(C)(CO)CO)[C@H](OC)C2)CC(=O)[C@H](C)/C=C(\C)[C@@H](O)[C@@H](OC)C(=O)[C@H](C)C[C@H](C)/C=C/C=C/C=C/1C [temsirolimus]
- Cancer patients who may experience mild grade pulmonary toxicity [8]: 10%
